Source: patent US8815857B2 (Boehringer Ingelheim International GmbH, priority 2011, dated 2014)
Converted amounts (≈) assume the structure as drawn.

Legend:
[1] = molecular target: T1, Recombinant human soluble guanylate cyclase (sGC), alpha 1 / beta 1 subunits, heme-free (Homo sapiens, UniProt Q02108+Q02153); experiment: Molecular assay: cGMP formation by heme-free recombinant sGC (CisBio cGMP detection kit); type: biochemical; conditions: 300 pM heme-free sGC, 37° C., 60 min, cGMP readout; read-out: EC50 nM, Activity of Compounds in Molecular Assay
T1 construct: histidine tag (C); made in house; host or cells: Sf9 insect cells (baculovirus coinfection)
T1 sequence (Q02108 1-690 partner): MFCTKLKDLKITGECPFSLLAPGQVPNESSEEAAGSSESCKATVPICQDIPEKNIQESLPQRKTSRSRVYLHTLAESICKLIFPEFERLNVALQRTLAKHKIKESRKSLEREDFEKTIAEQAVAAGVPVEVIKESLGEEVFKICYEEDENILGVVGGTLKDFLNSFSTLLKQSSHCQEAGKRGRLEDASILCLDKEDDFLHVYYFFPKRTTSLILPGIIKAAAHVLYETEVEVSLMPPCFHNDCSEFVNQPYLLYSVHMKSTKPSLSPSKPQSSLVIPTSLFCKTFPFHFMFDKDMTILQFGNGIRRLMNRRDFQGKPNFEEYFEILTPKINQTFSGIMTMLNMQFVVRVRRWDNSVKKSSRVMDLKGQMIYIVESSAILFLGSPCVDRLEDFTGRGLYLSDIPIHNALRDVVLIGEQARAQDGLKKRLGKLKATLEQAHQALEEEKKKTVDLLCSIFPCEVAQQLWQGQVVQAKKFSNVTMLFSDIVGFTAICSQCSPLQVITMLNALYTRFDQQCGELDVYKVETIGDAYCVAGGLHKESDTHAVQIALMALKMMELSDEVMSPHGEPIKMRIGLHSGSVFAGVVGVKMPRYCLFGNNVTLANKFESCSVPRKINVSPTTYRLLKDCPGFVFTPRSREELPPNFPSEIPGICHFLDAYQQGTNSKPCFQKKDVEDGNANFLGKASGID
T1 sequence (Q02153 1-619): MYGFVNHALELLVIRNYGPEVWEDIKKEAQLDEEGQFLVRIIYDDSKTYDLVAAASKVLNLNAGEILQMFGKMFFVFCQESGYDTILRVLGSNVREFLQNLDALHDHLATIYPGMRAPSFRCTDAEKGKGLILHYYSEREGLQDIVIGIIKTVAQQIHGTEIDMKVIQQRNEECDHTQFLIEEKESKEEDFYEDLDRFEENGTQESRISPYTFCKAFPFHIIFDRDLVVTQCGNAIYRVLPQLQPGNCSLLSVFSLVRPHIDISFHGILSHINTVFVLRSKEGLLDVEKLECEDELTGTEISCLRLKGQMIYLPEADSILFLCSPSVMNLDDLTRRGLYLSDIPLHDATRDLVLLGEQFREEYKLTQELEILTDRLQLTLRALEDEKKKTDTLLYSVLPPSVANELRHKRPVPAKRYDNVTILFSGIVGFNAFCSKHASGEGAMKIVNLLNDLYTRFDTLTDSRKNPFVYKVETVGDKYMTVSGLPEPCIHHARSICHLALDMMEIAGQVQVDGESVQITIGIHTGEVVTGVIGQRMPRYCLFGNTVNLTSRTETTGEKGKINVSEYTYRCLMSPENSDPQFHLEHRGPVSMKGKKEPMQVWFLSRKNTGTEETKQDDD
Outline: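 Heme-free His-tagged sGC (Sf9-expressed, Tween 20-treated lysate) at 300 pM incubated with compounds (1% DMSO) for 60 min at 37° C in MOPS pH 6.8 with 50 nM GTP, IBMX, TCEP. cGMP quantified by HTRF against calibration curve; EC50 from combined undiluted/diluted values.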

[2] = Assessment of solubility: HT solubility in pION buffer, UV spectrophotometry; conditions: 16-19 h incubation, 1.0% DMSO; for solubility: pION system solution buffer, kinetic from dmso stock
[3] = pH 7.4, pH 7.4, aqueous buffer, Solubility (pH 7.4), pH 7.4 buffer
[4] = pH 4.5, pH 4.5, aqueous buffer, Solubility (pH 4.5), pH 4.5 buffer

Row | EC50 [1] [nM] | Solubility (pH 4.5) ([2]; pH 4.5 buffer) [μg/mL] | solubility [2, 3] [µg/mL] | solubility [2, 4] [µg/mL] | Structure (SMILES)
1 | 1800 | 0.1 | > 54 | – | Cc1cc(C(=O)N2CCCCC2)ccc1COc1ccc(C#N)cc1-c1csc(N2CC3C(C2)C3C(=O)O)n1 (stereo not drawn) [Compound 64]
2 | 58 | 0.1 | 23 (≈ 42.2 µM) | – | Cc1ccc(OCc2ccc(C(=O)N3CCCCC3)cc2C#N)c(-c2csc(N3CCC(C(=O)O)CC3)n2)c1 [Compound 65]
3 | 450 | – | > 54 | 1 (≈ 1.84 µM) | Cc1cc(C(=O)N2CCCCC2)ccc1COc1c(C#N)cccc1-c1csc(N2CCC(C(=O)O)CC2)n1 [Compound 66]
4 | 2.5 | – | > 54 | 0.2 (≈ 0.366 µM) | Cc1cc(C(=O)N2CCCCC2)ccc1COc1ccccc1-c1csc(N2CC3CCC(C2)C3C(=O)O)n1 (stereo not drawn) [Compound 67]
5 | 180 | – | > 54 | 0.45 (≈ 0.823 µM) | Cc1ccc(OCc2ccc(C(=O)N3CCOCC3)cc2C#N)c(-c2csc(N3CCC(C(=O)O)CC3)n2)c1 [Compound 70]
6 | 12000 | – | > 62 | 42 (≈ 76.7 µM) | Cc1ccc(OCc2ccc(C(=O)N3CCCCC3)cc2C)c(-c2csc(N3CCC(C(=O)O)C(C)C3)n2)c1 (stereo not drawn) [Compound 71]
7 | 4.8 | – | > 54 | 0.5 (≈ 0.915 µM) | Cc1cc(CN2CCOCC2)ccc1COc1ccc(C#N)cc1-c1csc(N2CCC(C(=O)O)C(C)C2)n1 (stereo not drawn) [Compound 72]
8 | 7.6 | – | > 54 | 1.9 (≈ 3.47 µM) | Cc1ccc(OCc2ccc(C(=O)N3CCCCC3)cc2C)c(-c2csc(N3CCC(C(=O)O)CC3C)n2)c1 (stereo not drawn) [Compound 73]
9 | 27 | – | 42 (≈ 76.7 µM) | 40 (≈ 73 µM) | Cc1ccc(OCc2ccc(CN3CCOCC3)cc2C)c(-c2csc(N3CC4CCC(C3)C4C(=O)O)n2)c1 (stereo not drawn) [Compound 74]
10 | 600 | – | > 66 | > 66 | COCCN(C)Cc1ccc(COc2ccc(C)cc2-c2csc(N3CC[C@@H](C(=O)O)[C@@H](C)C3)n2)c(C#N)c1 [Compound 75]
11 | 600 | 0.1 | 4.1 (≈ 7.44 µM) | – | Cc1cc(C(=O)N2CCCCC2)ccc1COc1ccc(Cl)cc1-c1csc(C2=CCC(C(=O)O)CC2)n1 (stereo not drawn) [Compound 76]
12 | 4400 | – | 16 (≈ 29 µM) | 22 (≈ 39.9 µM) | Cc1cc(CN2CCOCC2)ccc1COc1ccc(F)cc1-c1csc(N2CC3CCC(C2)C3C(=O)O)n1 (stereo not drawn) [Compound 77]
13 | 550 | – | > 55 | 0.2 (≈ 0.362 µM) | Cc1cc(C(=O)N2CCCCC2)ccc1COc1ccc(Cl)cc1-c1csc(N2CC3C(C2)C3C(=O)O)n1 (stereo not drawn) [Compound 78]
14 | 50 | – | > 55 | 0.25 (≈ 0.453 µM) | Cc1cc(C(=O)N2CCCCC2)ccc1COc1ccc(F)cc1-c1csc(N2CCC(C(=O)O)CC2C)n1 (stereo not drawn) [Compound 79]
15 | 70 | – | 38 (≈ 68.7 µM) | 36 (≈ 65.1 µM) | N#Cc1cc(CN2CCOCC2)ccc1COc1c(Cl)cccc1-c1csc(N2CCC(C(=O)O)CC2)n1 [Compound 81]
16 | 3100 | – | > 55 | 12 (≈ 21.7 µM) | Cc1cc(CN2CCS(=O)(=O)CC2)ccc1COc1ccccc1-c1csc(N2CC3C(C2)C3C(=O)O)n1 (stereo not drawn) [Compound 82]
17 | 210 | – | 25 (≈ 45 µM) | 11 (≈ 19.8 µM) | Cc1cc(CN2CCOCC2)ccc1COc1ccc(Cl)cc1-c1csc(N2CCC(C(=O)O)C(C)C2)n1 (stereo not drawn) [Compound 83]
18 | 180 | – | 21 (≈ 37.8 µM) | 14 (≈ 25.2 µM) | Cc1cc(CN2CCOCC2)ccc1COc1ccc(Cl)cc1-c1csc(N2CCC(C(=O)O)CC2C)n1 (stereo not drawn) [Compound 84]
19 | 1100 | – | > 55 | 0.35 (≈ 0.626 µM) | Cc1cc(C(=O)N2CCCCC2)ccc1COc1ccc(C#N)cc1-c1csc(N2CCC(C(=O)O)CC2C)n1 (stereo not drawn) [Compound 85]
20 | 7100 | – | 5.7 (≈ 10.2 µM) | 3.5 (≈ 6.26 µM) | Cc1cc(CN2CCOCC2)ccc1COc1ccc(C#N)cc1-c1csc(N2CC3CCC(C2)C3C(=O)O)n1 (stereo not drawn) [Compound 86]
21 | 2.5 | – | 32 (≈ 57.2 µM) | 0.35 (≈ 0.625 µM) | Cc1ccc(OCc2ccc(C(=O)N3CCCCC3)cc2C)c(-c2csc(N3CC4CCC(C3)C4C(=O)O)n2)c1 (stereo not drawn) [Compound 89, 3-(4-{5-methyl-2-[2-methyl-4-(piperidine-1-carbonyl)-benzyloxy]-phenyl}-thiazol-2-yl)-3-aza-bicyclo[3.2.1]octane-8-carboxylic acid]
22 | 150 | – | > 56 | 35 (≈ 62.4 µM) | Cc1ccc(OCc2ccc(C(=O)N3CCC(O)CC3)cc2C#N)c(-c2csc(N3CCC(C(=O)O)CC3)n2)c1 [Compound 90]
23 | 730 | – | 12 (≈ 21.4 µM) | 31 (≈ 55.2 µM) | Cc1ccc(OCc2ccc(CN(C)CC3CCCCC3)cc2C)c(-c2csc(N3CCC(C(=O)O)CC3)n2)c1 [Compound 91]
24 | 78 | – | 12 (≈ 21.3 µM) | 20 (≈ 35.5 µM) | COCCCN(C)C(=O)c1ccc(COc2ccc(C)cc2-c2csc(N3CCC(C(=O)O)CC3)n2)c(C#N)c1 [Compound 92]
25 | 770 | – | > 56 | > 56 | Cc1cc(CN2CCCC(C(N)=O)C2)ccc1COc1c(C)cccc1-c1csc(N2CCC(C(=O)O)CC2)n1 (stereo not drawn) [Compound 94]
26 | 35 | – | > 56 | > 56 | CC(=O)N1CCN(Cc2ccc(COc3c(C)cccc3-c3csc(N4CCC(C(=O)O)CC4)n3)c(C)c2)CC1 [Compound 95]
27 | 550 | – | > 67 | > 67 | Cc1ccc(OCc2ccc(CN(C)CC3CCOCC3)cc2C)c(-c2csc(N3CCC(C(=O)O)CC3)n2)c1 [Compound 96]
28 | 780 | – | > 56 | 0.2 (≈ 0.355 µM) | Cc1cc(C(=O)N2CCCCC2)ccc1COc1ccc(F)cc1-c1csc(N2CC3CCC(C2)C3C(=O)O)n1 (stereo not drawn) [Compound 98]
29 | 690 | – | 13 (≈ 22.9 µM) | 4.7 (≈ 8.27 µM) | Cc1cc(CN2CCOCC2)ccc1COc1ccc(Cl)cc1-c1csc(N2CC3CCC(C2)C3C(=O)O)n1 (stereo not drawn) [Compound 99]
30 | 1700 | – | > 56 | 3 (≈ 5.28 µM) | Cc1ccc(OCc2ccc(CN3CCS(=O)(=O)CC3)cc2C)c(-c2csc(N3CC4C(C3)C4C(=O)O)n2)c1 (stereo not drawn) [Compound 101]

Row | Structure (SMILES) | EC50 [1] [nM] | Solubility (pH 4.5) ([2]; pH 4.5 buffer) [μg/mL] | solubility [2, 3] [µg/mL] | solubility [2, 4] [µg/mL]
31 | Cc1cc(C(=O)N2CCCCC2)ccc1COc1ccccc1-c1csc(N2C3CCC2CC(C(=O)O)C3)n1 (stereo not drawn) [Compound 68] | 43 | – | > 54 | 1.2 (≈ 2.2 µM)
32 | Cc1cc(CN2CCOCC2)ccc1COc1ccc(F)cc1-c1csc(N2C3CCC2CC(C(=O)O)C3)n1 (stereo not drawn) [Compound 80] | 740 | – | > 62 | > 62
33 | Cc1cc(CN2CCOCC2)ccc1COc1ccc(C#N)cc1-c1csc(N2C3CCC2CC(C(=O)O)C3)n1 (stereo not drawn) [Compound 87] | 800 | – | > 63 | > 63
34 | Cc1ccc(OCc2ccc(C(=O)N3CCCCC3)cc2C)c(-c2csc(N3C4CCC3CC(C(=O)O)C4)n2)c1 (stereo not drawn) [Compound 88] | 15 | – | > 55 | 0.45 (≈ 0.804 µM)
35 | Cc1cc(C(=O)N2CCCCC2)ccc1COc1ccc(F)cc1-c1csc(N2C3CCC2CC(C(=O)O)C3)n1 (stereo not drawn) [Compound 97] | 59 | – | > 56 | 0.45 (≈ 0.798 µM)
36 | Cc1cc(CN2CCOCC2)ccc1COc1ccc(Cl)cc1-c1csc(N2C3CCC2CC(C(=O)O)C3)n1 (stereo not drawn) [Compound 100] | 440 | – | 27 (≈ 47.5 µM) | 20 (≈ 35.2 µM)
